Measurements from patent US7026326B2, “Substituted heterocyclic compounds and methods of use” (Amgen Inc., priority 2002, dated 2006).

What follows are molecules tested on LPS induced TNF release (assay: Lipopolysaccharide-Activated THP1 Cell TNF Production Assay). Settings: Homo sapiens, THP-1; THP1 cells, bacterial LPS, TNF-α secretion at 37° C. for 3 h.
Type: cell-based
Procedure: Lipopolysaccharide-Activated THP1 Cell TNF Production Assay
THP1 cells are resuspended in fresh THP1 media (RPMI 1640, 10% heat-inactivated FBS, 1xPGS, 1XNEAA, plus 30 μM βME) at a concentration of 1E6/mL. One hundred microliters of cells per well are plated in a polystyrene 96-well tissue culture. One microgram per mL of bacterial LPS is prepared in THP1 media and is transferred to the wells. Test compounds are dissolved in 100% DMSO and are serially diluted 3 fold in a polypropylene 96-well microtiter plate (drug plate). HI control and LO control wells contain only DMSO. One microliter of test compound from the drug plate followed by 10 μL of LPS are transferred to the cell plate. The treated cells are induced to synthesize and secrete TNF-α at 37° C. for 3 h. Forty microliters of conditioned media are transferred to a 96-well polypropylene plate containing 110 μL of ECL buffer (50 mM Tris-HCl pH 8.0, 100 mM NaCl, 0.05% Tween 20, 0.05% NaN3 and 1% FBS) supplemented with 0.44 nM MAB610 monoclonal Ab (R&D Systems), 0.34 nM ruthenylated AF210NA polyclonal Ab (R&D Systems) and […] sheep anti-mouse M280 Dynabeads (Dynal). After a 2 h incubation at room temperature with shaking, the reaction is read on the ECL M8 Instrument (IGEN Inc.). A low voltage is applied to the ruthenylated TNF-α immune complexes, which in the presence of TPA (the active component in Origlo), results in a cyclical redox reaction generating light at […]. The amount of secreted TNF-α in the presence of compound compared with that in the presence of DMSO vehicle alone (HI control) is calculated using the formula: % control (POC)=(cpd−average LO)/(average HI−average LO)*100. Data (consisting of POC and inhibitor concentration in μM) is fitted to a 4-parameter equation (y=A+((B−A)/(1+((x/C)^D))), where A is the minimum y (POC) value, B is the maximum y (POC), C is the x (cpd concentration) at the point of inflection and D is the slope factor) using a Levenburg-Marquardt non-linear regression algorithm.

IC50, ≤ 20 µM:
CC(C)NC[C@H]1CCCN1c1cc(-c2ccncc2)c(-c2ccc3ccccc3c2)c(=O)n1C [Example 30, 6-[2-(Isopropylamino-methyl)-pyrrolidin-1-yl]-1-methyl-3-naphthalen-2-yl-1H-4[4,4′]bipyridinyl-2-one]
CC(C)N[C@@H](Cc1ccccc1)CN1CCC(c2cc(-c3ccncc3)c(-c3ccc4ccccc4c3)c(=O)n2C)CC1 [Example 23, 1-{(2S)-Isopropylamino-3-phenyl-propyl}-1′-methyl-5′-naphthalen-2-yl-1,2,3,4,5,6-hexahydro-1′H-[4,2′;4′,4″]terpyridin-6′-one]
C=Cc1cccc(-c2c(-c3ccncc3)nc(N3CCC[C@@H]3CNC(C)C)n(C)c2=O)c1 [Example 5, 2-[2-(Isopropylamino-methyl)-pyrrolidin-1-yl]-3-methyl-6-pyridin-4-yl-5-(3-vinyl-phenyl)-3H-pyrimidin-4-one]
CC(C)NC[C@H]1CCCN1c1c(Cl)c(-c2ccncc2)c(-c2ccc3ccccc3c2)c(=O)n1C (stereo in doubt) [Example 29, 5-Chloro-6-[2-(isopropylamino-methyl)-pyrrolidin-1-yl]-1-methyl-3-naphthalen-2-yl-1H-[4,4′]bipyridinyl-2-one]
Cn1c(N2CCCC2CO)cc(-c2ccncc2)c(-c2ccc(Cl)cc2)c1=O (stereo not shown) [Example 17, 3-(4-chlorophenyl)-6-[2-(hydroxymethyl)pyrrolidinyl]-1-methyl-4-(4-pyridyl)-hydropyridin-2-one]
COC[C@@H]1CCCN1c1nc(-c2ccnc(N[C@@H](C)c3ccccc3)c2)c(-c2cccc(C)c2)c(=O)n1C [Example 10, 2-(2-Methoxymethyl-pyrrolidin-1-yl)-3-methyl-6-[2-(1-phenyl-ethylamino)-pyridin-4-yl]-5-m-tolyl-3H-pyrimidin-4-one]
Cn1c(C2CCCN2CCN)cc(-c2ccncc2)c(-c2ccc3ccccc3c2)c1=O (stereo not shown) [Example 28, 6-[1-(2-Amino-ethyl)-pyrrolidin-2-yl]-1-methyl-3-naphthalen-2-yl-1H-[4,4′]bi-pyridinyl-2-one]
Cn1c(C2CCN(C[C@H](Cc3ccccc3)NC(=O)OC(C)(C)C)CC2)cc(-c2ccncc2)c(-c2ccc3ccccc3c2)c1=O [Example 21, [(1S)-Benzyl-2-(1′-methyl-5′-naphthalen-2-yl-6′-oxo-3,4,5,6,1′,6′-hexahydro-2H-[4,2′;4′,4″]terpyridin-1-yl)-ethyl]-carbamic acid tert-butyl ester]
Cc1cccc(-c2c(-c3ccncc3)nc(N3CCC[C@@H]3CNC(C)C)n(C)c2=O)c1 [Example 7, 2-[2-(Isopropylamino-methyl)-pyrrolidin-1-yl]-3-methyl-6-pyridin-4-yl-5-m-tolyl-3H-pyrimidin-4-one]
CC(C)N1CC(c2cc(-c3ccncc3)c(-c3ccc4ccccc4c3)c(=O)n2C)CC1CO (stereo not shown) [Example 16, 6-[5-(hydroxymethyl)-1-(methylethyl)pyrrolidin-3-yl]-1-methyl-3-(2-naphthyl)-4-(4-pyridyl)hydropyridin-2-one]
CC(C)N[C@H](Cc1ccccc1)CN1CCC(c2cc(-c3ccncc3)c(-c3ccc4ccccc4c3)c(=O)n2C)CC1 [Example 20, 1-{(2R)-Isopropylamino-3-phenyl-propyl}-1′-methyl-5′-naphthalen-2-yl-1,2,3,4,5,6-hexahydro-1′H-[4,2′;4′,4″]terpyridin-6′-one]
Cn1c(C2CCN(CCNC(=O)OC(C)(C)C)C2)cc(-c2ccncc2)c(-c2ccc3ccccc3c2)c1=O (stereo not shown) [Example 24, {2-[3-(1-Methyl-5-naphthalen-2-yl-6-oxo-1,6-dihydro-[4,4′]bipyridinyl-2-yl)-pyrrolidin-1-yl]-ethyl}-carbamic acid tert-butyl ester]
COC[C@@H]1CCCN1c1nc(-c2ccnc(Cl)c2)c(-c2cccc(C)c2)c(=O)n1C [Example 9, 6-(2-Chloro-pyridin-4-yl)-2-(2-methoxymethyl-pyrrolidin-1-yl)-3-methyl-5-m-tolyl-3H-pyrimidin-4-one]
Cn1c(C2CCN(C[C@@H](N)Cc3ccccc3)CC2)cc(-c2ccncc2)c(-c2ccc3ccccc3c2)c1=O [Example 22, 1-{(2S)-Amino-3-phenyl-propyl}-1′-methyl-5′-naphthalen-2-yl-1,2,3,4,5,6-hexahydro-1′H-[4,2′;4′,4″]terpyridin-6′-one]
Cn1c(C2CCCN2CCNC(=O)OC(C)(C)C)cc(-c2ccncc2)c(-c2ccc3ccccc3c2)c1=O (stereo not shown) [Example 27, {2-[2-(1-Methyl-5-naphthalen-2-yl-6-oxo-1,6-dihydro-[4,4′]bipyridinyl-2-yl)-pyrrolidin-1-yl]-ethyl}-carbamic acid tert-butyl ester]
CC(C)NCC1CCCN1c1cc(-c2ccncc2)c(-c2ccc3ccccc3c2)nn1 (stereo not shown) [Example 14, Isopropyl-[1-(6-naphthalen-2-yl-5-pyridin-4-yl-pyridazin-3-yl)-pyrrolidin-2-ylmethyl]-amine]
Cn1c(C2CCN(CC(C)(C)O)CC2)cc(-c2ccncc2)c(-c2ccc3ccccc3c2)c1=O [Example 13, 1-(2-Hydroxy-2-methyl-propyl)-1′-methyl-5′-naphthalen-2-yl-1,2,3,4,5,6-hexahydro-1′H-[4,2′;4′,4″]terpyridin-6′-one]
CC(C)NC[C@H]1CCCN1c1nc(-c2ccncc2)c(-c2ccc(Cl)cc2)c(=O)n1C [Example 1]
CC(C)NCC1CCCN1c1cc(-c2ccncc2)c(-c2ccc(Cl)cc2)c(=O)n1C (stereo not shown) [Example 31, 3-(4-Chlorophenyl)-1-methyl-6-(2-{[(methylethyl)amino]methyl}pyrrolidinyl)-4-(4-pyridyl)hydropyridin-2-one]
Cn1c(C2CCN(CC(C)(C)O)C2)cc(-c2ccncc2)c(-c2ccc3ccccc3c2)c1=O (stereo not shown) [Example 26, 6-[1-(2-Hydroxy-2-methyl-propyl)-pyrrolidin-3-yl]-1-methyl-3-naphthalen-2-yl-1H-[4,4′]bipyridinyl-2-one]
Cn1c(C2CCN(C[C@H](N)Cc3ccccc3)CC2)cc(-c2ccncc2)c(-c2ccc3ccccc3c2)c1=O [Example 19, 1-{(2R)-Amino-3-phenyl-propyl}-1′-methyl-5′-naphthalen-2-yl-1,2,3,4,5,6-hexahydro-1′H-[4,2′;4′,4″]terpyridin-6′-one]
CC(C)NC[C@H]1CCCN1c1nc(-c2ccncc2)c(-c2cccc(Br)c2)c(=O)n1C [Example 4, 5-(3-Bromo-phenyl)-2-[2-(isopropylamino-methyl)-pyrrolidin-1-yl]-3-methyl-6-pyridin-4-yl-3H-pyrimidin-4-one]
C[C@@H](O)CN1CCC(c2cc(-c3ccncc3)c(-c3ccc4ccccc4c3)c(=O)n2C)CC1 [Example 11, 1-(2R-Hydroxy-propyl)-1′-methyl-5′-naphthalen-2-yl-1,2,3,4,5,6-hexahydro-1′H-[4,2′;4′,4″]terpyridin-6′-one]
CC(C)NC[C@H]1CCCN1c1nc(-c2ccncc2)c(-c2cccc(C3CC3)c2)c(=O)n1C [Example 6, 5-(3-Cyclopropyl-phenyl)-2-[2-(isopropylamino-methyl)-pyrrolidin-1-yl]-3-methyl-6-pyridin-4-yl-3H-pyrimidin-4-one]
CC(O)CN1CCC(c2cc(-c3ccncc3)c(-c3ccc4ccccc4c3)c(=O)n2C)C1 (stereo not shown) [Example 25, 6-[1-(2-Hydroxy-propyl)-pyrrolidin-3-yl]-1-methyl-3-naphthalen-2-yl-1H-[4,4′]bipyridinyl-2-one]
Cn1c(C2CNC(CO)C2)cc(-c2ccncc2)c(-c2ccc3ccccc3c2)c1=O (stereo not shown) [Example 15, 6-[5-(Hydroxymethyl)pyrrolidin-3-yl]-1-methyl-3-(2-naphthyl)-4-(4-pyridyl)-hydropyridin-2-one]
Cn1c(C2CCN(C[C@@H](Cc3ccccc3)NC(=O)OC(C)(C)C)CC2)cc(-c2ccncc2)c(-c2ccc3ccccc3c2)c1=O [Example 18, [(1R)-Benzyl-2-(1′-methyl-5′-naphthalen-2-yl-6′-oxo-3,4,5,6,1′,6′-hexahydro-2H-[4,2′;4′,4″]terpyridin-1-yl)-ethyl]-carbamic acid tert-butyl ester]
CC(C)NC[C@@H]1CCCN1c1nc(-c2ccncc2)c(-c2ccc(Cl)cc2)c(=O)n1C [Example 2]
